Measurements from patent US12264185B2, “Stabilized BCL9 peptides for treatment of aberrant Wnt signaling” (WntRx Pharmaceuticals Inc., priority 2015, dated 2025).
“And” between values parts separate entries of the source, which are not always exact repeats. Identical values can stand only once. Like-named read-outs stand apart in the source and are kept apart here. Each block holds one molecule with its values, some of them ahead of it. Bridge positions count the residues as written; N and C are the ends. Square brackets hold non-standard residues; d marks the D form. Peptide text beside a SMILES is read from it. 2Nal = N[C@@H](Cc1ccc2ccccc2c1)C(=O)O; R5 = C=CCCC[C@@](C)(N)C(=O)O; S5 = C=CCCC[C@](C)(N)C(=O)O; βAla = NCCC(=O)O

Experiments:
FIG. 10B = conditions: for MRTINF | hr: in vivo
Method: Each data point represents N=2. Mice were administered 5 mg/kg, 10 mg/kg, or 15 mg/kg intravenously, 5 mg/kg intramuscularly, 10 mg/kg intraperitoneally, or 10 mg/kg subcutaneously.

FIG. 9B = assay: FIG. 9B
Description: Table printed on a drawing sheet, FIG. 9B
First reader's note: Plasma PK parameters derived from the concentration-time curves plotted in FIG. 9A on the same sheet.

Colo320DM cells = assay: cells
Method: Colo320DM cells were selected for this assay as the proliferation of this particular cell line is dependent on BCL9 and β-catenin. ICG001, a known Wnt/β-catenin small molecule inhibitor, was used as a positive control. The cell viability at each treatment condition was analyzed using CellTiterGlo luminescent cell viability assay (Promega) according to the manufacturer's protocols.
Following the procedure described in Example 2, the ability of WX-035 to inhibit cell growth was tested in a cell viability assay using Colo320DM cells.

Wnt/β-catenin signaling = assay: GeneBLAzer beta-lactamase Wnt transcription reporter assay, LEF/TCF-bla HCT-116 cells; type: cell-based; conditions: for IC50: LEF/TCF-bla HCT-116 cells
Description: ICG001 was used as a comparison. The GeneBLAzer uses CellSensor™ LEF/TCF-bla HCT-116 cells that contain a beta-lactamase (BLA) reporter gene under the control of the β-catenin/LEF/TCF response element stably integrated into HCT-116 cells, as shown in FIG. 5A. These cells constitutively express beta-lactamase and can be used to detect agonists and antagonists of the Wnt/β-catenin signaling pathway. The GeneBLAzer assay provides a ratiometric reporter response involving a two-color (blue/green) readout of stimulated and unstimulated cells.
LEF/TCF-bla HCT-116 cells were plated in assay medium (Invitrogen) on clear-bottom plates and incubated overnight at 37° C. […] Cells were next incubated with the Wnt agonist, mWnt3a (provided in the GeneBLAzer kit) for 5 hours at 37° C. Substrate mixture (containing LiveBLAzer™ B/G substrate that employs CCF4-AM, a FRET substrate for beta-lactamase) was added to the wells, and the plate was incubated for 2.5 hours at room temperature in the dark. Black-walled, clear-bottom, 384-well plates (Corning Costar) were used with scanning done with a Spectramax M2. Plates were scanned first (Scan 1 in the blue channel) with excitation filter 409/20 nm and emission filter 460/40 nm. Plates were then scanned (Scan 2 in the green channel) with excitation filer 409/20 nm and emission filter 530/30 nm.

HCT116 cells = type: cell-based; conditions: HCT116 cells, CellTiterGlo
Method: The additional polypeptides were tested in a CellTiterGlo luminescent cell viability assay (Promega). ICG001 was used as a positive control in this assay.

CT26.WT cells = type: cell-based
Method: One of the stabilized polypeptides generated in Example 10 was tested in a cell viability assay and compared against WX-035. WX-037 was selected for this comparison study. The cell viability assay was performed with CT26.WT cells (ATCC), following the procedures described in Example 2. Briefly, 4000 cells per well of each plate were seeded with 50 μL opti-MEM medium. Each polypeptide, WX-035 or WX-037, was diluted with 2% FBS containing opti-MEM medium using 1 μL of 200× concentrated polypeptide in 99 μL of the medium. Each stock solution was diluted for testing a wide range of concentrations. 50 μL of 2× concentrated polypeptide was added to each well of the plate. Three days after the polypeptide addition, the viability of cells was measured using CellTiterGlo assay, according to the manufacturer's protocol.

CT26 cells = assay: cells; conditions: Mus musculus, CT26, read-out: IC50, CT26 cell growth
Method: CT26 cells were grown in F-bottom plates over 5 days. […] CellTiterGlo (Promega) cell viability assay. […] Doxorubicin is a known inhibitor of cell growth and was included as a control.

[1] = read-out: IC50, Wnt transcription

Molecule: CC[C@H](C)[C@@H]1NC(=O)[C@@](C)(NC(=O)[C@H](CCCNC(=N)N)NC(=O)[C@H](CC(C)C)NC(=O)[C@@H](NC(=O)[C@H](CCC(N)=O)NC(=O)[C@H](CC(C)C)NC(C)=O)[C@@H](C)O)CCCC=CCCC[C@@](C)(C(=O)N[C@@H](CC(C)C)C(=O)N[C@@H](Cc2ccc3ccccc3c2)C(N)=O)NC(=O)[C@H](CCCNC(=N)N)NC(=O)[C@H](CCC(N)=O)NC1=O (single isomer, unassigned) [WX-024 5mg/kg, IV]
AUCINF | (FIG. 10B): 136 µg·h/mL
AUClast | (FIG. 10B): 136 µg·h/mL
CL | L/hr/kg (FIG. 10B): 0.0368 L/h/kg
CL | mL/min/kg (FIG. 10B): 0.613 mL/min/kg
VSS | (FIG. 10B): 0.0693 L/kg
MRT (FIG. 10B; female, Balb/c, mouse, blood, iv): 1.88 h
half-life (FIG. 10B; female, Balb/c, mouse, blood, iv, read-out: TERMINAL t1/2 | hr (converted)): 1.99 h

Molecule: CC[C@H](C)[C@@H]1NC(=O)[C@@](C)(NC(=O)[C@H](CCCNC(=N)N)NC(=O)[C@H](CC(C)C)NC(=O)[C@@H](NC(=O)[C@H](CCC(N)=O)NC(=O)[C@H](CC(C)C)NC(C)=O)[C@@H](C)O)CCCC=CCCC[C@@](C)(C(=O)N[C@@H](CC(C)C)C(=O)N[C@@H](Cc2ccc3ccccc3c2)C(N)=O)NC(=O)[C@H](CCCNC(=N)N)NC(=O)[C@H](CCC(N)=O)NC1=O (single isomer, unassigned) [WX-024 10mg/kg, IV]
AUCINF | (FIG. 10B): 233 µg·h/mL
AUClast | (FIG. 10B): 233 µg·h/mL
CL | L/hr/kg (FIG. 10B): 0.0428 L/h/kg
CL | mL/min/kg (FIG. 10B): 0.713 mL/min/kg
VSS | (FIG. 10B): 0.0788 L/kg
MRTINF | hr (FIG. 10B; mouse, iv): 1.84 h

Molecule: CC[C@H](C)[C@@H]1NC(=O)[C@@](C)(NC(=O)[C@H](CCCNC(=N)N)NC(=O)[C@H](CC(C)C)NC(=O)[C@@H](NC(=O)[C@H](CCC(N)=O)NC(=O)[C@H](CC(C)C)NC(C)=O)[C@@H](C)O)CCCC=CCCC[C@@](C)(C(=O)N[C@@H](CC(C)C)C(=O)N[C@@H](Cc2ccc3ccccc3c2)C(N)=O)NC(=O)[C@H](CCCNC(=N)N)NC(=O)[C@H](CCC(N)=O)NC1=O (single isomer, unassigned) [WX-024 15mg/kg, IV]
AUCINF | (FIG. 10B): 260 µg·h/mL
AUClast | (FIG. 10B): 260 µg·h/mL
CL | L/hr/kg (FIG. 10B): 0.0576 L/h/kg
CL | mL/min/kg (FIG. 10B): 0.96 mL/min/kg
VSS | (FIG. 10B): 0.0946 L/kg
MRTINF | hr (FIG. 10B; mouse, iv): 1.64 h

Molecule: CC[C@H](C)[C@@H]1NC(=O)[C@@](C)(NC(=O)[C@H](CCCNC(=N)N)NC(=O)[C@H](CC(C)C)NC(=O)[C@@H](NC(=O)[C@H](CCC(N)=O)NC(=O)[C@H](CC(C)C)NC(C)=O)[C@@H](C)O)CCCC=CCCC[C@@](C)(C(=O)N[C@@H](CC(C)C)C(=O)N[C@@H](Cc2ccc3ccccc3c2)C(N)=O)NC(=O)[C@H](CCCNC(=N)N)NC(=O)[C@H](CCC(N)=O)NC1=O (single isomer, unassigned) [WX-024, LQTLRXaa1IQRXaa2L]
T1/2 | hr (FIG. 9B): 2.44 h and 2.59 h and 2.51 h

IC50 (Colo320DM cells; Homo sapiens, COLO 320DM, read-out: IC50, cell viability): 12100 nM
Molecule: O=c1[nH]cc(F)c(=O)[nH]1 [5-FU, 5-fluorouracil, reference compound]

IC50 (Wnt/β-catenin signaling; [1]): 1060 nM
IC50 (HCT116 cells; read-out: IC50, cell viability): 2170 nM
Molecule: O=C1[C@H](Cc2ccc(O)cc2)N2C(=O)CCN(C(=O)NCc3ccccc3)[C@H]2CN1Cc1cccc2ccccc12 [ICG001, reference compound]
effect on cell viability / cell growth (Colo320DM cells; Colo320DM cells): capable of inducing cell death in a dose dependent manner

IC50 (Wnt/β-catenin signaling; Homo sapiens, read-out: IC50, Wnt/β-catenin transcription): > 10000 nM
Molecule: Cc1cc(-c2ncc(CC(=O)Nc3ccc(-c4cnccn4)cn3)cc2C)ccn1 [LGK-974, reference compound]

IC50 (Colo320DM cells): 12400 nM
IC50 (Wnt/β-catenin signaling; [1]): 1580 nM
Molecule: CC[C@H](C)[C@@H]1NC(=O)[C@@](C)(NC(=O)[C@H](CCCNC(=N)N)NC(=O)[C@H](CC(C)C)NC(C)=O)CCCC=CCCC[C@@](C)(C(=O)N[C@@H](CC(C)C)C(N)=O)NC(=O)[C@H](CCCNC(=N)N)NC(=O)[C@H](CCC(N)=O)NC1=O [WX-020, LRXaa1IQRXaa2L] (Ac-LR[S5]IQR[S5]L-NH2; staple 3-7)
inhibition of Wnt transcription among domain mapping polypeptides (Wnt/β-catenin signaling; HCT116 cells): most effective polypeptide in inhibiting the Wnt transcription

IC50 (CT26.WT cells): > 32000 nM
Molecule: CC(=O)N[C@]1(C)CCCC=CCCC[C@@](C)(C(=O)N[C@@H](CC(=O)O)C(=O)N[C@@H](CCCNC(=N)N)C(=O)N[C@@]2(C)CCCC=CCCC[C@@](C)(C(=O)N[C@@H](CC(=O)O)C(=O)N[C@@H](Cc3c[nH]cn3)C(=O)NCCC(=O)NCCC(N)=O)NC(=O)[C@H](CCCNC(=N)N)NC(=O)[C@H](CCC(N)=O)NC(=O)[C@H](CC(=O)O)NC2=O)NC(=O)[C@H](CCC(N)=O)NC(=O)[C@H](CC(=O)O)NC1=O [WX-037, Xaa1DQXaa2DRXaa3DQRXaa4DH] (Ac-[R5]DQ[S5]DR[S5]DQR[S5]DH[βAla][βAla]-NH2; staple 1-4, 7-11)

IC50 (CT26 cells): 7520 nM
Molecule: COc1cccc2c1C(=O)c1c(O)c3c(c(O)c1C2=O)C[C@@](O)(C(=O)CO)C[C@@H]3O[C@H]1C[C@H](N)[C@H](O)[C@H](C)O1 [doxorubicin]

IC50 (CT26 cells): > 2000 nM
Molecule: C#Cc1cccc(Nc2ncnc3cc(OCCOC)c(OCCOC)cc23)c1 [erlotinib]

IC50 (Wnt/β-catenin signaling; [1]): 764 nM
Molecule: stapled, Ac N-terminus, C-terminus 2-Nal-β-Ala-β-Ala-NH2 (Ac-LR[S5]IQR[S5]L[2Nal][βAla][βAla]-NH2; staple 3-7; SMILES CC[C@H](C)[C@@H]1NC(=O)[C@@](C)(NC(=O)[C@H](CCCNC(=N)N)NC(=O)[C@H](CC(C)C)NC(C)=O)CCCC=CCCC[C@@](C)(C(=O)N[C@@H](CC(C)C)C(=O)N[C@@H](Cc2ccc3ccccc3c2)C(=O)NCCC(=O)NCCC(N)=O)NC(=O)[C@H](CCCNC(=N)N)NC(=O)[C@H](CCC(N)=O)NC1=O) [WX-021, LRXaa1IQRXaa2L]
inhibition of cell growth (HCT116 cells): particularly effective
